Measured values as given in patent publication US9284321B2, “Piperazino[1,2-a]indol-1-ones and [1,4]diazepino[1,2-a]indol-1-one” (Hoffmann-La Roche Inc., priority 2012, dated 2016).

Experiments:
[1] = system: human embryonic stem cell derived neural stem cells (NSCs); assay: Neural Stem Cell Proliferation Assay (neurogenesis assay, ATP levels by CellTiterGlo); type: cell-based; conditions: 96 h, compound concentration at which 150% activity of control (100%) is reached, NSC proliferation by ATP level after 4 days incubation, dose response 8 μM to 8 nM
Procedure: Neurogenic properties of small molecules are determined based on the proliferation of human embryonic stem cell derived neural stem cells (NSCs) which were derived via a dual smad inhibition as previously described (Chambers, S. M., et al., Highly efficient neural conversion of human ES and iPS cells by dual inhibition of SMAD signaling, Nature biotechnology, 2009. 27(3): p. 275-80.)
Compounds respond is measured by the increase in cells based on ATP levels
(Promega:CellTiterGlo®) after an incubation period of 4 days.
NSCs are thawed and expanded over 3 passages. On the 14th day, NSCs are seeded in Polyornithin/Laminin coated 384 well plates at a cell density of 21′000 cells/cm^2 in a media volume of 38 μl.
4 hours after cell seeding, compound solutions are added at a volume of 2 μl. Stock solutions of the compounds (water, 5% DMSO) are diluted to obtain a dose response (11 points, dilution factor is 2), ranging from 8 μM to 8 nM. Controls are run to consistently determine the neurogenic properties of the cells:
Negative (neutral) control is cell culture Media (final DMSO concentration: 0.25%).
• 1. cell culture Media+100 ng/ml FGF2 (final DMSO concentration: 0.1%) • 2. cell culture Media+20 ng/ml EGF (final DMSO concentration: 0.1%) • 3. cell culture Media+100 ng/ml Wnt3a (final DMSO concentration: 0.1%)
After 4 days incubation at 37° C., 5% CO2, the amount of ATP per well is quantified. The ATP concentration is proportional to the cell number. ATP is quantified by using the Promega CellTiterGlo® kit. The CellTiterGlo® reagents contain a cell lysis buffer, a thermo stable luciferase (UltraGlo™ recombinant luciferase), magnesium and luciferin. Luciferin reacts with ATP producing oxyluciferin, AMP and light. The luminescence signal is proportional to the ATP content.
The value of negative (neutral) control is determined for each assay plate by taking the average of 16 negative control wells. The neurogenic compound response is calculated for each compound as (compound/Negative Control)*100.
The values of EC150 from the dose response curve are determined for each test compound. The EC150 is the compound concentration at which 150% activity of control (100%) is reached.

Structure (SMILES)	EC (150% of control) [1]	melting point
O=C1NCCCn2c1cc1cc(Cl)cc(-c3ccc(Cl)cc3)c12 [Example 53, 9-Chloro-7-(4-chloro-phenyl)-2,3,4,5-tetrahydro-[1,4]diazepino[1,2-a]indol-1-one]	0.15 µM	237 °C
COc1ccc(-c2cc(Cl)cc3cc4n(c23)CCCNC4=O)cc1 [Example 54, 9-Chloro-7-(4-methoxy-phenyl)-2,3,4,5-tetrahydro-[1,4]diazepino[1,2-a]indol-1-one]	0.07 µM	218 °C
Cc1cc(-c2ccc(F)c(F)c2)c2c(c1)cc1n2CCCNC1=O [Example 55, 7-(3,4-Difluoro-phenyl)-9-methyl-2,3,4,5-tetrahydro-[1,4]diazepino[1,2-a]indol-1-one]	2.8 µM	231 °C
COc1ccc(-c2cc(C)cc3cc4n(c23)CCCNC4=O)cc1 [Example 56, 7-(4-Methoxy-phenyl)-9-methyl-2,3,4,5-tetrahydro-[1,4]diazepino[1,2-a]indol-1-one]	0.35 µM	208 °C
Cc1cc(-c2ccc(F)cc2)c2c(c1)cc1n2CCCNC1=O [Example 57, 7-(4-Fluoro-phenyl)-9-methyl-2,3,4,5-tetrahydro-[1,4]diazepino[1,2-a]indol-1-one]	1.44 µM	234.5 °C
Cc1cc(-c2ccc(Cl)cc2)c2c(c1)cc1n2CCCNC1=O [Example 58, 7-(4-Chloro-phenyl)-9-methyl-2,3,4,5-tetrahydro-[1,4]diazepino[1,2-a]indol-1-one]	1.51 µM	258.5 °C
Cc1cc(-c2ccc(Cl)cc2)c2c(c1)cc1n2CCNC1=O [Example 59, 6-(4-Chloro-phenyl)-8-methyl-3,4-dihydro-2H-pyrazino[1,2-a]indol-1-one]	0.18 µM	269 °C
Cc1cc(-c2ccc(F)c(F)c2)c2c(c1)cc1n2CCNC1=O [Example 60, 6-(3,4-Difluoro-phenyl)-8-methyl-3,4-dihydro-2H-pyrazino[1,2-a]indol-1-one]	0.71 µM	249.5 °C
COc1ccc(-c2cc(C)cc3cc4n(c23)CCNC4=O)cc1 [Example 61, 6-(4-Methoxy-phenyl)-8-methyl-3,4-dihydro-2H-pyrazino[1,2-a]indol-1-one]	0.059 µM	245 °C
Cc1cc(-c2ccc(F)cc2)c2c(c1)cc1n2CCNC1=O [Example 62, 6-(4-Fluoro-phenyl)-8-methyl-3,4-dihydro-2H-pyrazino[1,2-a]indol-1-one]	0.32 µM	257 °C
CN1CCn2c(cc3cc(F)cc(-c4ccc(F)cc4)c32)C1=O [Example 63, 8-Fluoro-6-(4-fluoro-phenyl)-2-methyl-3,4-dihydro-2H-pyrazino[1,2-a]indol-1-one]	0.6 µM	212 °C
Cc1c2n(c3c(-c4ccc(F)c(F)c4)cc(Cl)cc13)CCNC2=O [Example 64, 8-Chloro-6-(3,4-difluoro-phenyl)-10-methyl-3,4-dihydro-2H-pyrazino[1,2-a]indol-1-one]	0.12 µM	235.5 °C
Cc1c2n(c3c(-c4ccc(Cl)cc4)cc(Cl)cc13)CCNC2=O [Example 65, 8-Chloro-6-(4-chloro-phenyl)-10-methyl-3,4-dihydro-2H-pyrazino[1,2-a]indol-1-one]	0.019 µM	236.5 °C
Cc1c2n(c3c(-c4ccc(F)cc4)cc(Cl)cc13)CCNC2=O [Example 66, 8-Chloro-6-(4-fluoro-phenyl)-10-methyl-3,4-dihydro-2H-pyrazino[1,2-a]indol-1-one]	0.047 µM	227.5 °C
COc1ccc(-c2cc(Cl)cc3c(C)c4n(c23)CCNC4=O)cc1 [Example 67, 8-Chloro-6-(4-methoxy-phenyl)-10-methyl-3,4-dihydro-2H-pyrazino[1,2-a]indol-1-one]	0.008 µM	264 °C
Cc1c2n(c3c(-c4ccc(F)c(F)c4)cc(Cl)cc13)CCCNC2=O [Example 68, 9-Chloro-7-(3,4-difluoro-phenyl)-11-methyl-2,3,4,5-tetrahydro-[1,4]diazepino[1,2-a]indol-1-one]	0.12 µM	254 °C

Structure (SMILES)	EC (150% of control) [1]	melting point
Cc1c2n(c3c(-c4ccc(Cl)cc4)cc(Cl)cc13)CCCNC2=O [Example 69, 9-Chloro-7-(4-chloro-phenyl)-11-methyl-2,3,4,5-tetrahydro-[1,4]diazepino[1,2-a]indol-1-one]	0.061 µM	271 °C
Cc1c2n(c3c(-c4ccc(F)cc4)cc(Cl)cc13)CCCNC2=O [Example 70, 9-Chloro-7-(4-fluoro-phenyl)-11-methyl-2,3,4,5-tetrahydro-[1,4]diazepino[1,2-a]indol-1-one]	0.063 µM	260 °C
COc1ccc(-c2cc(Cl)cc3c(C)c4n(c23)CCCNC4=O)cc1 [Example 71, 9-Chloro-7-(4-methoxy-phenyl)-11-methyl-2,3,4,5-tetrahydro-[1,4]diazepino[1,2-a]indol-1-one]	0.021 µM	240.5 °C
Cc1c2n(c3c(-c4ccc(F)c(F)c4)cc(F)cc13)CCNC2=O [Example 72, 6-(3,4-Difluoro-phenyl)-8-fluoro-10-methyl-3,4-dihydro-2H-pyrazino[1,2-a]indol-1-one]	0.12 µM	229.5 °C
Cc1c2n(c3c(-c4ccc(Cl)cc4)cc(F)cc13)CCNC2=O [Example 73, 6-(4-Chloro-phenyl)-8-fluoro-10-methyl-3,4-dihydro-2H-pyrazino[1,2-a]indol-1-one]	0.017 µM	209.5 °C
Cc1c2n(c3c(-c4ccc(F)cc4)cc(F)cc13)CCNC2=O [Example 74, 8-Fluoro-6-(4-fluoro-phenyl)-10-methyl-3,4-dihydro-2H-pyrazino[1,2-a]indol-1-one]	0.072 µM	182 °C
COc1ccc(-c2cc(F)cc3c(C)c4n(c23)CCNC4=O)cc1 [Example 75, 8-Fluoro-6-(4-methoxy-phenyl)-10-methyl-3,4-dihydro-2H-pyrazino[1,2-a]indol-1-one]	0.005 µM	237 °C
N#Cc1cc(-c2ccc(F)c(F)c2)c2c(c1)cc1n2CCNC1=O [Example 76, 6-(3,4-Difluoro-phenyl)-1-oxo-1,2,3,4-tetrahydro-pyrazino[1,2-a]indole-8-carbonitrile]	0.02 µM	289.5 °C
N#Cc1cc(-c2ccc(Cl)cc2)c2c(c1)cc1n2CCNC1=O [Example 77, 6-(4-Chloro-phenyl)-1-oxo-1,2,3,4-tetrahydro-pyrazino[1,2-a]indole-8-carbonitrile]	0.02 µM	316.5 °C
N#Cc1cc(-c2ccc(F)cc2)c2c(c1)cc1n2CCNC1=O [Example 78, 6-(4-Fluoro-phenyl)-1-oxo-1,2,3,4-tetrahydro-pyrazino[1,2-a]indole-8-carbonitrile]	0.012 µM	297.5 °C
COc1ccc(-c2cc(C#N)cc3cc4n(c23)CCNC4=O)cc1 [Example 79, 6-(4-Methoxy-phenyl)-1-oxo-1,2,3,4-tetrahydro-pyrazino[1,2-a]indole-8-carbonitrile]	0.004 µM	278.5 °C
Cc1c2n(c3c(-c4ccccc4)cc(F)cc13)CCNC2=O [Example 80, 8-Fluoro-10-methyl-6-phenyl-3,4-dihydro-2H-pyrazino[1,2-a]indol-1-one]	0.098 µM	244 °C
Cc1ccc(-c2cc(F)cc3c(C)c4n(c23)CCNC4=O)cc1 [Example 81, 8-Fluoro-10-methyl-6-p-tolyl-3,4-dihydro-2H-pyrazino[1,2-a]indol-1-one]	0.014 µM	226 °C
Cc1c2n(c3c(-c4ccc(C(F)(F)F)cc4)cc(F)cc13)CCNC2=O [Example 82, 8-Fluoro-10-methyl-6-(4-trifluoromethyl-phenyl)-3,4-dihydro-2H-pyrazino[1,2-a]indol-1-one]	0.036 µM	269.5 °C
Cc1c2n(c3c(-c4ccncc4)cc(F)cc13)CCNC2=O [Example 83, 8-Fluoro-10-methyl-6-pyridin-4-yl-3,4-dihydro-2H-pyrazino[1,2-a]indol-1-one]	0.039 µM	290 °C
